# Experiments:
# SET = assay: Immunoblotting of SET in neuroblastoma cells; assay type: cell-based, human; settings: increasing concentrations, 24 h; four cell lines and two PDXs
# Protocol: Following treatment, cells were lysed on ice using radioimmunoprecipitation (RIPA) buffer with phosphatase inhibitors (P5726, Sigma Aldrich), protease inhibitors (P8340, Sigma Aldrich), and phenylmethanesulfonylfluoride (PMSF, P7626, Sigma Aldrich) for 60 min. Cell lysates were centrifuged at 17,000 rpm for 30 min at 4 °C. Pierce™ BCA Protein Assay (Thermo Fisher Scientific, Inc.) determined protein concentration and proteins were separated by electrophoresis on sodium dodecyl sulfate polyacrylamide (SDS-PAGE) gels. Expected size of the targeted proteins was confirmed using molecular weight markers (Precision Plus Protein Kaleidoscope, Bio-Rad, Hercules, CA, USA). […] Immunoblots were developed with Luminata Classico or Crescendo Western horseradish peroxidase substrate (EMD Millipore, Burlington, MA, USA). Either anti-vinculin or anti-β-actin (as available from manufacturer) served as an internal loading control. We performed densitometry of Western blots using ImageJ software (Ver 1.49, http://imagej.nih.gov/ij (accessed on 9 February 2022).
# [1] = tested on: SK-N-AS, SK-N-BE(2), SH-EP, WAC2, COA6, COA129 cells; assay: CellTiter 96 proliferation, long-term cell lines and PDX cells; assay type: cell-based, human; settings: increasing doses, 24 h
# Protocol: (§1) CellTiter 96® Aqueous One Solution Cell Proliferation assay (Promega, Madison, WI, USA) was used to examine proliferation, and alamarBlue® assay (Thermo Fisher Scientific, Inc.) was used to evaluate viability. Cells, concentrations ranging from 5 × 10^3 to 1.5 × 10^4, depending on cell type due to wide variation in growth characteristics between established cell lines and PDX cells, were plated in 96-well plates and treated with increasing doses of 792 or 1154 for 24 h. CellTiter 96® or alamarBlue® dye (10 µL) was added for proliferation and viability assays, respectively. A microplate reader (Epoch Microplate Spectrophotometer, BioTek Instruments, Winooski, VT) measured absorbance at 490 nm for CellTiter 96® and at 570 nm for alamarBlue®, using 600 nm as a reference. […] Experiments were completed with at least three biologic replicates, and data reported as fold change ± SEM.
# PP2A = PP2A immunoprecipitation phosphatase assay in SK-N-AS cells; assay type: cell-based, human; settings: 24 h; for PP2A activation compared with FTY720: 10 μM vs FTY720 5 μM, p ≤ 0.01; for PP2A activation (percent PP2A activity): 10 μM, control 100 ± 0%
# Protocol: SK-N-AS cells (1 × 10^6) were treated with FTY720 (5 μM), 792 (10 μM), or 1154 (10 μM) for 24 h and lysed using HEPES (AC215001000, Thermo Fisher Scientific Inc.), MgCl2 (MX0045-4, EM Science, Gibbstown, NJ, USA), KCl (02-003-741, Thermo Fisher Scientific Inc.), PMSF (Sigma Aldrich), dithiothreitol (EC-601, National Diagnostics, Atlanta, GA, USA), and Igepal CA-630 ([…], Sigma Aldrich) for 20 min on ice. Cell lysates were centrifuged at 17,000 rpm for 30 min at 4 °C. The commercially available PP2A Immunoprecipitation Phosphatase Assay Kit (17-313, EMD Millipore) has been used by other investigators to directly measure PP2A activity and was utilized per manufacturer's protocol to evaluate the activity of PP2A following treatment and compared to untreated cells. Experiments were completed at least in triplicate, and data reported as mean fold change ± standard error of the mean (SEM).
# SK-N-BE(2) cells [2] = assay: alamarBlue viability, SK-N-BE(2); assay type: cell-based, human; settings: 24 h
# Protocol: as §1, with “SEM. […]” for “SEM.”
# (§2) Supplemental Table S1: Neuroblastoma cells had the highest sensitivity to 792 and 1154.
# (§3) (A) SK-N-AS and (B) SK-N-BE(2) cells (1.5 x 104) were plated in 96-well plates and treated with increasing doses of nine PP2A activating compounds for 24 hours. Compounds 792 and 1154 had the lowest LD50s of the nine compounds investigated in both cell lines.
# (§4) Supplemental Figure S4: SK-N-AS cells were treated with FTY720 (0, 5 μM), 792 (10 μM), or 1154 (10 μM) for 24 hours and PP2A activity was measured. […]
# SK-N-BE(2) cells [3] = assay: CellTiter 96 proliferation, SK-N-BE(2); assay type: cell-based; settings: Homo sapiens, SKNBE2, 24 h
# Protocol: as §1, with “SEM. […]” for “SEM.”
# as §2, §3, §4
# [4] = tested on: SK-N-AS, SK-N-BE(2), SH-EP, WAC2 cells; assay: Monolayer wound healing (scratch) migration assay; assay type: cell-based, human; settings: 36 h; 792 10 μM SK-N-AS, 15 μM others; 1154 10 μM SK-N-AS and SK-N-BE(2), 15 μM SH-EP and WAC2
# Protocol: (§5) Since the established neuroblastoma cell lines grow as adherent cells, migration in SK-N-AS, SK-N-BE(2), SH-EP, and WAC2 cells was examined using monolayer wound healing (scratch) assay. […] Once cells reached 80% confluence, a sterile 200 μL pipette tip was used to make a standard scratch in the cell layer. Photographs of the plates were obtained at 0, 12, 24, and 36 h. ImageJ MRI Wound Healing Tool (http://imagej.nih.gov/ij/ (accessed on 14 October 2019) quantified the open wound area, and data reported as fold change of the open area ± SEM. Invasion was evaluated with a modified Boyden chamber technique. The insert bottoms were coated with collagen type I (10 µg/mL, MP Biomedicals, Santa Ana, CA, USA). The insert tops were coated with a layer of Matrigel^TM (1 mg/mL, 50 μL, BD Biosciences). Cells were treated for 24 h with 792 (SK-N-AS 10 μM; SK-N-BE(2), SH-EP, WAC2 15 μM) or 1154 (SK-N-AS, SK-N-BE(2) 10 μM; SH-EP, WAC2 15 μM), plated (4 × 10^4 cells), and allowed to invade through the membrane for 24 h. Insert membranes were fixed using 4% paraformaldehyde, stained with 1% crystal violet for 15 min, photographed, and invasion quantified with ImageJ (http://imagej.nih.gov/ij/ (accessed on 10 September 2019)). Invasion data were reported as mean percent membrane occupied by cells ± SEM. Experiments were completed with at least three biologic replicates.
# [5] = tested on: SK-N-AS, SK-N-BE(2), SH-EP, WAC2 cells; assay: Modified Boyden chamber invasion assay; assay type: cell-based, human; settings: 24-h treatment, same doses as scratch assay; four cell lines
# Protocol: as §5
Compound,SET expression (SET),proliferation [1],PP2A activation compared with FTY720 (PP2A),PP2A activation (percent PP2A activity) (PP2A) [%],LD50 (SK-N-BE(2) cells [2]) [µM],IC50 (SK-N-BE(2) cells [3]) [µM],Migration (fold change of open wound area) [4],Invasion [5]
O=S(=O)(N[C@H]1COC[C@@H](n2c3ccc(Cl)cc3c3cc(Cl)ccc32)[C@@H]1O)c1ccc(OC(F)(F)F)cc1 [ATUX-792],unchanged,significantly decreased proliferation,significantly more than FTY720,117.5 ± 5.6,17.2,17.2,significantly decreased,significantly decreased
O=S(=O)(NC1CCCC(N2c3ccccc3CCc3ccccc32)C1O)c1ccc(OC(F)(F)F)cc1 (stereo not shown) [DBK-1154],unchanged,significantly decreased proliferation,significantly more than FTY720,134.8 ± 18.4,16.6,23.8,significantly decreased,significantly decreased

# Reference: article PMC9026148, “Pre-Clinical Study Evaluating Novel Protein Phosphatase 2A Activators as Therapeutics for Neuroblastoma” (Cancers, 2022)
